Experimental data taken from patent publication US8309558B2, “Compounds for the treatment of hepatitis C” (Bristol-Myers Squibb Company, priority 2008, dated 2012).
pEC50, pIC50: −log10 of the molar value. Read-outs that look alike come from different tables or passages of the source.

Legend:
HCV replicon cells = test: HCV replicon FRET / luciferase assay (96-well plates); type: cell-based; details: Hepatitis C virus, HCV replicon, read-out: EC50
Summary of the method: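 Replicon cells (with or without Renilla luciferase reporter) incubated with titrated compounds at 37 °C; Alamar blue read for cytotoxicity first. NS3 protease activity read kinetically with 20 μM EDANS/DABCYL FRET peptide in lysis reagent plus 150 mM NaCl (ex 340/em 490), or by Dual-Glo luciferase. EC50 = 50% signal reduction after protease-inhibitor background subtraction.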

[1] = biological target: T1, HCV NS5B RdRp genotype 1b (Hepatitis C virus genotype 1b, UniProt Q9WMX2); test: Standard HCV NS5B RdRp enzyme assay; type: biochemical; details: HCV NS5B RdRp genotype 1b, read-out: IC50
T1 construct: The protein was expressed with an 18 amino acid C-terminal truncation to enhance the solubility; made in house; host or cells: E. coli BL21(DE3), pET21a vector
Summary of the method: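 C-terminally truncated (18 aa) genotype 1b NS5B from E. coli, 28 nM, with 6 nM polyA template, 180 nM biotinylated oligo-dT12 primer and 3H-UTP (0.29 μM total UTP). Hepes pH 7.5 buffer with 2% DMSO; 60 min at 30° C. EDTA stop, SPA read-out; IC50 from seven concentrations by four-parameter fit.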

T1 sequence (Q9WMX2 2420-2992): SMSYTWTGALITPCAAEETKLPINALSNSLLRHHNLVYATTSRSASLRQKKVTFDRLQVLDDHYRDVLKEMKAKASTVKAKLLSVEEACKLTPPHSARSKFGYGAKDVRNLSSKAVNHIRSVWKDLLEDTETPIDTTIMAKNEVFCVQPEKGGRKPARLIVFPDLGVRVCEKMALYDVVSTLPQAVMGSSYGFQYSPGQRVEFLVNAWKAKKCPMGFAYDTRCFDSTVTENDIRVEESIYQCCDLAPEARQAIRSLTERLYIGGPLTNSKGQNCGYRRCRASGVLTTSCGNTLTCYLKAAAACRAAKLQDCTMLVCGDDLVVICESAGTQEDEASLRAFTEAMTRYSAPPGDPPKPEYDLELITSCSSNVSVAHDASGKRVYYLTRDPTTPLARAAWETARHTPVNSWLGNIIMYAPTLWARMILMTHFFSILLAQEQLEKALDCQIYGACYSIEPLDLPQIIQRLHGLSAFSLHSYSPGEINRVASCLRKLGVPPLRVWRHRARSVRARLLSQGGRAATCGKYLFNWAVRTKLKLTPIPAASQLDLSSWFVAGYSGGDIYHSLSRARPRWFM

Row | Compound | pEC50 (HCV replicon cells; Table 1b) | pIC50 ([1]; Table 1b) | pEC50 (HCV replicon cells; Table 1a) | pIC50 ([1]; Table 1a) | also measured
1 | CNC(=O)c1c(-c2ccc(F)cc2)oc2ccc(-c3ccc(-c4cccnc4OC)c(C(=O)NCC(C)C)c3)cc12 | > 6.60 | > 6.60 |  |  | 
2 | CNC(=O)c1c(-c2ccc(F)cc2)oc2ccc(-c3cccc(C(=O)NC(C)(C)c4ccc(F)cc4)c3)cc12 |  |  | > 6.60 | > 6.60 | 
3 | CNC(=O)c1c(-c2ccc(F)cc2)oc2ccc(-c3cccc(C(=O)N4CCCCC4)c3)cc12 |  |  | 5.00 to 6.00 | 6.00 to 6.60 | 
4 | CNC(=O)c1c(-c2ccc(F)cc2)oc2ccc(-c3cccc(C(=O)NCCc4ccccc4)c3)cc12 |  |  | < 5.00 | < 5.00 | 
5 | CNC(=O)c1c(-c2ccc(F)cc2)oc2ccc(-c3cccc(C(=O)NCC(C)C)c3)cc12 |  |  | > 6.60 | > 6.60 | 
6 | CNC(=O)c1c(-c2ccc(F)cc2)oc2ccc(-c3cccc(C(=O)N4Cc5ccccc5C4)c3)cc12 |  |  | < 5.00 | < 6.40 | 
7 | CCOc1cc(C)c(-c2ccc3oc(-c4ccc(F)cc4)c(C(=O)NC)c3c2)cc1C(=O)NC1(c2ccccn2)CC1 |  |  |  |  | pEC50 (HCV replicon cells; 24 h, Table 1d (class symbols)): 6.60 to 9.00; pIC50 ([1]; Table 1d (class symbols)): 6.60 to 9.00
8 | CCC(NC(=O)c1ccc(F)c(-c2cc3c(C(=O)NC)c(-c4ccc(F)cc4)oc3cc2NS(C)(=O)=O)c1)c1ccccc1 (stereo not shown) | > 6.60 | > 6.60 |  |  | 
9 | CCn1nccc1NC(=O)c1cccc(-c2ccc3oc(-c4ccc(F)cc4)c(C(=O)NC)c3c2)c1 |  |  | 6.00 to 6.60 | 6.00 to 6.60 | 
10 | CNC(=O)c1c(-c2ccc(F)cc2)oc2ccc(-c3cc(C(=O)NCC(C)C)ccc3OCCO)cc12 | > 6.60 | > 6.60 |  |  | 
11 | CNC(=O)c1c(-c2ccc(F)cc2)oc2ccc(-c3cc(OCC#N)cc(C(=O)NCC(C)C)c3)cc12 | > 6.60 | > 6.60 |  |  | 
12 | CNC(=O)c1c(-c2ccc(F)cc2)oc2ccc(-c3cccc(-c4nnc(C(C)C)o4)c3)cc12 |  |  | > 6.60 | > 6.60 | 
13 | CNC(=O)c1c(-c2ccc(F)cc2)oc2ccc(-c3cc(C(=O)NC4(c5cccc(C)c5)CC4)c(OC)cc3C)cc12 |  |  |  |  | pEC50 (HCV replicon cells; 24 h, Table 1d (class symbols)): 6.60 to 9.00; pIC50 ([1]; Table 1d (class symbols)): 6.60 to 9.00
14 | CNC(=O)c1c(-c2ccc(F)cc2)oc2ccc(-c3cc(OCc4ccoc4)cc(C(=O)NCC(C)C)c3)cc12 | 5.00 to 6.00 | 5.00 to 6.00 |  |  | 
15 | CNC(=O)c1c(-c2ccc(F)cc2)oc2ccc(-c3cccc(C(=O)Nc4c(O)ncnc4O)c3)cc12 |  |  | < 5.00 | 6.00 to 6.60 | 
16 | CNC(=O)c1c(-c2ccc(F)cc2)oc2ccc(-c3cccc(C(=O)NC(C)(C)C(=O)Nc4cc(C)no4)c3)cc12 | > 6.60 | > 6.60 |  |  | 
17 | CNC(=O)c1c(-c2ccc(F)cc2)oc2ccc(-c3cccc(C(=O)Nc4ccnc(C)c4)c3)cc12 |  |  | 6.00 to 6.60 | 5.00 to 6.00 | 
18 | CNC(=O)c1c(-c2ccc(F)cc2)oc2ccc(-c3cccc(C(=O)NC4CCCC4)c3)cc12 |  |  | > 6.60 | > 6.60 | 
19 | CNC(=O)c1c(-c2ccc(F)cc2)oc2ccc(-c3cccc(C(=O)N4CCC4)c3)cc12 |  |  | 6.00 to 6.60 | 6.00 to 6.60 | 
20 | CNC(=O)c1c(-c2ccc(F)cc2)oc2ccc(-c3cccc(C(=O)Nc4ccnn4C)c3)cc12 |  |  | 6.00 to 6.60 | 6.00 to 6.60 | 

Row | Compound | pEC50 (HCV replicon cells; Table 1b) | pIC50 ([1]; Table 1b) | pEC50 (HCV replicon cells; Table 1a) | pIC50 ([1]; Table 1a) | also measured
21 | CNC(=O)c1c(-c2ccc(F)cc2)oc2cc(NS(C)(=O)=O)c(-c3cc(C(=O)NC4(c5ccccc5)CC4)ccc3F)cc12 | > 6.60 | > 6.60 |  |  | 
22 | CNC(=O)c1c(-c2ccc(F)cc2)oc2ccc(-c3cc(C(=O)NC4(c5nnc(C)[nH]5)CC4)ccc3C)cc12 | > 6.60 | > 6.60 |  |  | 
23 | CNC(=O)c1c(-c2ccc(F)cc2)oc2ccc(-c3cccc4[nH]ccc34)cc12 |  |  | 6.00 to 6.60 | < 5.00 | 
24 | CNC(=O)c1c(-c2ccc(F)cc2)oc2ccc(-c3cccc(C(=O)NC(C)(C)c4ccc(OC)cc4)c3)cc12 |  |  | > 6.60 | > 6.60 | 
25 | CNC(=O)c1c(-c2ccc(F)cc2)oc2ccc(-c3cc(C(=O)NC4(c5ncccn5)CC4)cc(F)c3C)c(F)c12 [drawing 712] |  |  |  |  | pEC50 (HCV replicon cells; 24 h, second table titled Table 1d (numbers)): 8.62; pIC50 ([1]; second table titled Table 1d (numbers)): 8.09
26 | CNC(=O)c1c(-c2ccc(F)cc2)oc2ccc(-c3cccc(C(=O)NC(C)(C)C(=O)Nc4nncs4)c3)cc12 | > 6.60 | > 6.60 |  |  | 
27 | CNC(=O)c1c(-c2ccc(F)cc2)oc2ccc(-c3cccc(C(=O)NC(C)CC(=O)O)c3)cc12 (stereo not shown) |  |  | < 5.00 | 6.00 to 6.60 | 
28 | CNC(=O)c1c(-c2ccc(F)cc2)oc2ccc(-c3cc(C(=O)NCC(C)C)ccc3OC(F)(F)F)cc12 | < 5.00 | 6.00 to 6.60 |  |  | 
29 | C#CCNC(=O)c1cccc(-c2ccc3oc(-c4ccc(F)cc4)c(C(=O)NC)c3c2)c1 |  |  | 5.00 to 6.00 | 6.00 to 6.60 | 
30 | CCOC(=O)C(NC(=O)c1cccc(-c2ccc3oc(-c4ccc(F)cc4)c(C(=O)NC)c3c2)c1)C(C)C (stereo not shown) |  |  | 5.00 to 6.00 | 6.00 to 6.60 | 
31 | CNC(=O)c1c(-c2ccc(F)cc2)oc2cc(N)c(-c3cc(C(=O)NC4(c5ccccc5)CC4)ccc3C)cc12 | > 6.60 | > 6.60 |  |  | 
32 | CNC(=O)c1c(-c2ccc(F)cc2)oc2ccc(-c3cccc(C(=O)NC(C)(C)Cc4ccc(F)cc4)c3)cc12 |  |  | > 6.60 | 6.00 to 6.60 | 
33 | CNC(=O)c1c(-c2ccc(F)cc2)oc2ccc(-c3cccc(C(=O)NC(C)c4ccc(F)cc4)c3)cc12 (stereo not shown) |  |  | > 6.60 | > 6.60 | 
34 | CNC(=O)c1c(-c2ccc(F)cc2)oc2ccc(-c3ccc(CNS(C)(=O)=O)cc3)cc12 |  |  | < 5.91 | < 5.00 | 
35 | CNC(=O)c1c(-c2ccc(F)cc2)oc2ccc(-c3cccc(-c4nc(-c5ccccc5)no4)c3)cc12 | > 6.60 | < 5.00 |  |  | 
36 | CNC(=O)c1c(-c2ccc(F)cc2)oc2ccc(-c3cccc(C(=O)N4CCc5ccccc54)c3)cc12 |  |  | 6.00 to 6.60 | 5.00 to 6.00 | 
37 | CNC(=O)c1c(-c2ccc(F)cc2)oc2ccc(-c3ccc(-c4ccccc4Cl)c(C(=O)NCC(C)C)c3)cc12 | > 6.60 | > 6.60 |  |  | 
38 | CNC(=O)c1c(-c2ccc(F)cc2)oc2ccc(-c3ccc(C(=O)N4CCC[C@H]4CO)cc3)cc12 |  |  | < 5.00 | < 5.00 | 
39 | CNC(=O)c1c(-c2ccc(F)cc2)oc2ccc(-c3cnc(OC)nc3)cc12 |  |  | 5.00 to 6.00 | 5.00 to 6.00 | 
40 | CNC(=O)c1c(-c2ccc(F)cc2)oc2ccc(-c3cc(C(=O)NC(C)(C)c4ccccc4)ccc3OC)cc12 [drawing 355] | > 6.60 | > 6.60 |  |  | 

Row | Compound | pEC50 (HCV replicon cells; Table 1b) | pIC50 ([1]; Table 1b) | pEC50 (HCV replicon cells; Table 1a) | pIC50 ([1]; Table 1a) | also measured
41 | CNC(=O)c1c(-c2ccc(F)cc2)oc2ccc(-c3cccc(C(=O)NC(C)(C)c4ccccc4)c3)c([N+](=O)[O-])c12 |  |  | > 6.60 | > 6.60 | 
42 | CNC(=O)c1c(-c2ccc(F)cc2)oc2ccc(-c3cccc(C(=O)N4CC[C@@H](O)C4)c3)cc12 |  |  | 5.00 to 6.00 | 5.00 to 6.00 | 
43 | CNC(=O)c1c(-c2ccc(F)cc2)oc2ccc(-c3ccc(-c4ccccc4)c(C(=O)NC(C)(C)c4ccccc4)c3)cc12 |  |  | > 6.60 | > 6.60 | 
44 | CNC(=O)c1c(-c2ccc(F)cc2)oc2ccc(-c3cc(C(=O)NC4(C(=O)O)CC4)ccc3C)cc12 | 5.00 to 6.00 | > 6.60 |  |  | 
45 | CNC(=O)c1c(-c2ccc(F)cc2)oc2ccc(-c3cccc(C(=O)N[C@@H](C)c4ccc(F)cc4)c3)cc12 |  |  | > 6.60 | > 6.60 | 
46 | CNC(=O)c1c(-c2ccc(F)cc2)oc2ccc(-c3cc(C(=O)NC4(c5ccccn5)CC4)c(OCC(C)C)cc3C)cc12 |  |  |  |  | pEC50 (HCV replicon cells; 24 h, Table 1d (class symbols)): 6.60 to 9.00; pIC50 ([1]; Table 1d (class symbols)): 6.60 to 9.00
47 | CNC(=O)c1c(-c2ccc(F)cc2)oc2ccc(-c3cc(OCCn4ccnc4C)cc(C(=O)NCC(C)C)c3)cc12 | 5.00 to 6.00 | 5.00 to 6.00 |  |  | 
48 | CNC(=O)c1c(-c2ccc(F)cc2)oc2ccc(OCCCNC(=O)OC(C)(C)C)cc12 |  |  | 5.00 to 6.00 | 5.00 to 6.00 | 
49 | CNC(=O)c1c(-c2ccc(F)cc2)oc2ccc(-c3cc(NC(=O)C4(c5ccccc5)CC4)ccc3C)cc12 | 6.00 to 6.60 | 5.00 to 6.00 |  |  | 
50 | CNC(=O)c1c(-c2ccc(F)cc2)oc2ccc(-c3ccc(-c4cncc(N)c4)c(C(=O)NCC(C)C)c3)cc12 | 6.00 to 6.60 | > 6.60 |  |  | 
51 | CNC(=O)c1c(-c2ccc(F)cc2)oc2ccc(-c3cc(C(=O)NCC(C)C)ccc3OCc3cn(C)cn3)cc12 | 6.00 to 6.60 | 5.00 to 6.00 |  |  | 
52 | CNC(=O)c1c(-c2ccc(F)cc2)oc2ccc(-c3cc(OCCCCN)cc(C(=O)NCC(C)C)c3)cc12 | 5.00 to 6.00 | > 6.60 |  |  | 
53 | CNC(=O)c1c(-c2ccc(F)cc2)oc2ccc(-c3ccc(C(=O)NCCOC)cc3)cc12 |  |  | < 5.00 | < 5.00 | 
54 | CNC(=O)c1c(-c2ccc(F)cc2)oc2cc(N)c(-c3cc(C(=O)NC4(c5ccccc5)CC4)ccc3OC)cc12 | > 6.60 | > 6.60 |  |  | 
55 | CNC(=O)c1c(-c2ccc(F)cc2)oc2ccc(-c3cc(C(=O)NC4(c5ccccn5)CC4)c(-c4ccccc4Cl)cc3C)cc12 | > 6.60 | > 6.60 |  |  | 
56 | CNC(=O)c1c(-c2ccc(F)cc2)oc2ccc(-c3cc(OCCC4CCNCC4)cc(C(=O)NCC(C)C)c3)cc12 | 5.00 to 6.00 | > 6.60 |  |  | 
57 | CNC(=O)c1c(-c2ccc(F)cc2)oc2ccc(-c3cccc(C(=O)N(CCOC)CCOC)c3)cc12 |  |  | 5.00 to 6.00 | 5.00 to 6.00 | 
58 | CNC(=O)c1c(-c2ccc(F)cc2)oc2ccc(-c3cccc(S(=O)(=O)NC)c3)cc12 |  |  | < 5.43 | < 5.00 | 
59 | CNC(=O)c1c(-c2ccc(F)cc2)oc2cc(N(C)S(C)(=O)=O)c(-c3cccc(C(=O)NC(C)(C)c4ccccc4)c3)cc12 | > 6.60 | > 6.60 |  |  | 
